# Data published in patent US12144814B2, “Compositions containing paraxanthine and beta-hydroxybutyrate or precursor for increasing neurological and physiological performance” (priority 2023, dated 2024).
# Columns and labels:
# [1] = Clinical Resting Energy Expenditure study; format: in vivo; settings: paraxanthine 100 mg or 300 mg; BHB 5 g; paraxanthine 100 mg or 300 mg with BHB 5 g; 180-day period
# Protocol: FIGS. 16A-16B show expected results of a clinical Resting Energy Expenditure study, where participants are supplemented with paraxanthine alone (100 mg or 300 mg), BHB alone (5 g), or paraxanthine (100 mg or 300 mg) in combination with BHB (5 g) over a 180-day period. […] Because of the presence of the BHB ketone body component, such increased metabolic rate is also more likely to occur within the context of ketogenic state, where fat is principally used as the caloric energy source for the increased resting metabolic rate.
# [2] = in vivo; cited from earlier work
# adenosine A2a receptors = adenosine A2a receptors (Homo sapiens, UniProt P29274); settings: compared with caffeine; cited from earlier work
# Chain of adenosine A2a receptors (P29274 whole entry): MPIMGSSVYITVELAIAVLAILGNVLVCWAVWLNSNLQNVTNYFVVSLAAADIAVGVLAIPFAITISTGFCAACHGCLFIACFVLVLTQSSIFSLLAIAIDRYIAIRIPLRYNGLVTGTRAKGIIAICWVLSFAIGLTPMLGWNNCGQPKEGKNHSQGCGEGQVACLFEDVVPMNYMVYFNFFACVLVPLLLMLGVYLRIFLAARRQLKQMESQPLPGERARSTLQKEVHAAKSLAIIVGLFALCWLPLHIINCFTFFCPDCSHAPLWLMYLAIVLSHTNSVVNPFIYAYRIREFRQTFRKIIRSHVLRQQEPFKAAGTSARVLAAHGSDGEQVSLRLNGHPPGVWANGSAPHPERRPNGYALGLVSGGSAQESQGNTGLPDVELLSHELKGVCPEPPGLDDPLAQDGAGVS
# [3] = cited from earlier work
# mice [4] = assay: Cook's Pole Climbing Test on mice; format: in vivo; settings: PX 100 mg
# [5] = 28-day sports nutrition clinical study; format: in vivo; settings: paraxanthine 100 mg, paraxanthine 100 mg with BHB 5 g, 28 days, exercise 5 days per week
# Excerpt: Participants exercise 5 days per week, of the 4-week study. […] Increases in nitric oxide levels, as well as improved blood lipids scores (e.g., TG, TC, LDL, HDL) are also observed.
# [6] = tested on: healthy trained male runners; assay: Berg-Washington Card Sorting Task Test before and after 10 km treadmill run; format: in vivo; settings: 200 mg paraxanthine, 200 mg caffeine, 5 g BHB, and combinations, after 10 km treadmill run
# Excerpt: The Berg-Washington Card Sorting Task (BCST) test is a test routinely used in the field to evaluate cognitive flexibility. The BCST test focuses on basic cognitive flexibility or set-shifting between old vs. new rule changes. The test involves reasoning, learning, executive control, and attention shifting. It is particularly sensitive to the subject's inability to shift set. Cards are shown with different colors (e.g., red, green, yellow, blue), different designs (e.g., circle, triangle, star, plus sign) and different numbers of symbols (e.g., 1-4) on the computer screen. Participants are asked to sort the cards by matching colors and/or designs and/or number of symbols, where the instruction for how to sort the cards can change, at different times during the test. Number of correct responses and number of errors (particular perservative errors, where the participant incorrectly continues sorting the cards under an old instruction, after a new instruction is given) are recorded. […] The testing is conducted under double blind, placebo controlled conditions. The subjects include 12 healthy trained male runners, aged 26±5 years. Baseline cognition tests are administered (PRE), the given supplement is ingested, and after 60 minutes of rest, a pre-race cognition test (PRE-EX) is administered. […]
# healthy young adults = assay: Berg-Washington Card Sorting Task Test; format: in vivo; settings: 200 mg paraxanthine, 5 g BHB, 200 mg paraxanthine and 5 g BHB
# Excerpt: The Berg-Washington Card Sorting Task (BCST) test is a test routinely used in the field to evaluate cognitive flexibility. The BCST test focuses on basic cognitive flexibility or set-shifting between old vs. new rule changes. The test involves reasoning, learning, executive control, and attention shifting. It is particularly sensitive to the subject's inability to shift set. Cards are shown with different colors (e.g., red, green, yellow, blue), different designs (e.g., circle, triangle, star, plus sign) and different numbers of symbols (e.g., 1-4) on the computer screen. Participants are asked to sort the cards by matching colors and/or designs and/or number of symbols, where the instruction for how to sort the cards can change, at different times during the test. Number of correct responses and number of errors (particular perservative errors, where the participant incorrectly continues sorting the cards under an old instruction, after a new instruction is given) are recorded. When running each such tests, subjects are given either paraxanthine+BHB, paraxanthine alone, BHB alone, or a placebo. The dosage amounts are 200 mg paraxanthine and 5 g of BHB, 200 mg of paraxanthine alone, 5 g of BHB alone, or a placebo. The testing is conducted under double blind, placebo controlled conditions. […]
# adenosine A1 receptors = target: T1, adenosine A1 receptors (Homo sapiens, UniProt P30542); settings: compared with caffeine; cited from earlier work
# T1 sequence (P30542 1-326): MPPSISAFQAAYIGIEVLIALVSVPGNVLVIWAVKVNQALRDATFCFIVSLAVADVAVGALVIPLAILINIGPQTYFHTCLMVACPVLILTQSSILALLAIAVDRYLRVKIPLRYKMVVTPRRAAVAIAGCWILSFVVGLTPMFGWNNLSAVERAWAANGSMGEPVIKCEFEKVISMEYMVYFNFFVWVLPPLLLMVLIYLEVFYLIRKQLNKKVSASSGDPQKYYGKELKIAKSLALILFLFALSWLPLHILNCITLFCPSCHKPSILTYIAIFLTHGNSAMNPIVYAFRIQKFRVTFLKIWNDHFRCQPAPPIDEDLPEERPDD
# mice [7] = assay: Forced Swim Test on mice; format: in vivo; settings: PX 100 mg
smiles,measurement,setting,value
"Cn1c(=O)[nH]c2ncn(C)c2c1=O [paraxanthine, 1,7-dimethylxanthine]",resting energy expenditure,[1],some increase in resting energy expenditure
same,wake promoting activity,[2],stronger wake promoting activity as compared to caffeine
same,binding potency for adenosine A2a receptors,adenosine A2a receptors,higher binding potencies
same,half-life,"[3]; elimination half-life, FIG. 3",3.1 h
same,Total plasma clearance,[3]; in vivo,2.20 mL/min/kg
same,No. of Climbing,mice [4],2.75
same,endurance (treadmill distance),[5]; FIG. 14A,some improvement
same,muscle mass,[5]; FIG. 14B,some improvement
same,grip strength,[5]; FIG. 14C,some improvement
same,"Berg-Washington Card Sorting Task Test correct responses, POST relative to PRE",[6]; FIG. 12A,some improvement in correct responses
same,"Berg-Washington Card Sorting Task Test errors, POST relative to PRE",[6]; FIGS. 12B-12D,reduced errors
same,Berg-Washington Card Sorting Task Test number of correct responses,healthy young adults; FIG. 7,significant increase in the number of correct responses
same,Berg-Washington Card Sorting Task Test number of errors,healthy young adults; FIG. 8,reduction in the number of errors
same,binding potency for adenosine A1 receptors,adenosine A1 receptors,higher binding potencies
same,Duration of Immobility,mice [7],5.85 min
same,Duration of mobility/active swimming,mice [7],24.15 min
